Experimental data taken from patent US8889615B2, “Methods for promoting epithelialization and healing of chronic wounds” (New York University, priority 2009, dated 2014).
Entries after “also recorded” stand apart in the source; their conditions may differ.

Legend:
β-catenin = β-catenin nuclearization in primary human epidermal keratinocytes (immunostaining, β-catenin y142); format: cell-based; conditions: 0.1 μmol/L dexamethasone; 200 nM Calphostin C or 10 μM RU486
Procedure: Topical GC treatment of human skin cepsimens was performed by daily applica-tion of Cormax (Clobetasol Propionate Cream 0.05%; Oclassen Pharmaceuticals, Inc.) using a sterile Q-tip applicator. Samples were fixed in formalin and processed for paraffin embedding following by sectioning to obtain 5-μm-thick sections. Keratinocytes were grown on chamber slides to 70% confluency (Lab-Tek, Naperville, Ill.) and treated with 0.1 μmol/L dexamethasone (Sigma) and incubated in the presence or absence of 200 nM Calphostin C or 10 μM RU486. Cells were fixed in 70% methanol for 10 minutes and permeabilized with 0.1% Triton X-100 for 10 minutes. Human tissues were stained with β-catenin antibody β-catenin phosphorylated Ab (Tyr- 142) (AbCam) at 1:1500 dilution in 5% bovine serum albumin and visualized using a secondary fluorescein isothiocyanate anti-mouse IgG antibody 1:150 (Sigma). All sections were mounted with mounting media. All negative controls were prepared by substitution of the primary antibody with an irrelevant antibody. The sections were analyzed using a Carl Zeiss microscope (Carl Zeiss, Thornwood, N.Y.) and digital images were collected using Adobe TWAIN—32 program.

wounded human skin [1] = experiment: Human skin wound model, topical treatment, epithelialization by planimetry; format: cell-based; conditions: topical DEX 1 μM + Calphostine C 200 μM, 6 days
Procedure: Wounds were created using 4-mm punch biopsies through the reticular dermis and incubated on the air-liquid interface, as previously described. Immediately upon wounding cells were treated topically with dexamethasone (DEX) (1 μM), Calphostine C (CC) (200 μM) and the combination, DEX+CC and maintained on the air-liquid interface for 6 days. All specimens were frozen in OCT compound (Tissue Tek, Reading; Calif.) for immunocytochemistry. Wounds were quantified by planimetry as described previously (Tomic-Canic, et al., Wound Repair Regen., 15(1):71-9 (2007)).

[2] = test system: LEF/TCF-mediated transcription; experiment: SuperTopFlash Tcf/Lef luciferase reporter assay in primary human keratinocytes; format: cell-based; conditions: 24 hours; for dexamethasone-mediated induction of LEF/TCF-mediated transcription: Dexamethasone 1 μM with RU486 10 μM or Calphostine C 200 nM
Procedure: Primary human keratinocytes were plated into 6-well plates and grown to 70% confluence in defined serum-free keratinocyte medium supplemented with epidermal growth factor and bovine pituitary extract (keratinocyte-SFM, GIBCO). Prior to transfection cells were transferred to basal serum—free medium (GIBCO) for 6 h, and then transfected with Tcf/Lef transcriptional activation reporter construct SuperTopFlash (Masckauchán, Mol. Biol. Cell, 17(12):5163-5172 (2006)) containing Tcf responsive elements and renilla-luciferase construct. Transfections were performed in triplicates using 3 μg of reporter plasmid, 0.2 μg of renilla-luciferase plasmid with a FuGene 6 transfection reagent (Roche), following manufacturer's instructions for procedure. Cells were incubated at 37° C. for over night with transfection cocktail and than treated with Dexamethasone (1 μM), RU486 (10 μM) and Calphostine C (200 nM) for 24 hours. Cell lysates were prepared the next day and both firefly and renilla luciferase activities were evaluated using Dual-Luciferase Reporter Assay System (Promega, Madison, Wis.). Samples were read in a luminometer and values were normalized for transfection efficiency using renilla-luciferase activity.

c-myc = c-myc Western blot in HEK; format: cell-based, human; conditions: DEX 1 μM with Calphostine C or RU486 10 μM, 4 hours
Procedure: Extracts for immunoblotting were prepared from a subconfluent 100 mm plate of normal HEK treated with DEX (1 μM), Calphostine C and RU486 (10 μM) or an equal volume of ethanol vehicle 4 hours prior to lysis. Cells were placed on ice; washed twice with phosphate-buffer saline (PBS); and lysed in 0.5 ml of modified RIPA buffer containing 50 mM Hepes, pH 7.5, 150 mM NaCl, 1 mM EDTA, 1 mM EGTA, 1 mM NaF, 1% Triton X-100, 10% glycerol, and additional protease and phosphatase inhibitors (1 mM phenylmethylsulfonyl fluoride, 20 mM glycerophosphate, 8 mM sodium pyrophosphate, 1 μg/ml leupeptin, 1 μg/ml pepstatin A, and 1 μg/ml aprotinin (Roche, Indianapolis, Ind.)) through fine needle aspiration. Lysates were centrifuged at 13,000 rpm for 10 min at 4° C. The soluble supernatants were normalized for total protein concentration using the Bradford protein assay, and the samples were stored at −20° C. Cell extracts were boiled for 5 minutes in Leammli sample buffer, were separated by 10% SDS-PAGE and transferred to nitrocellulose membrane (VWR, Batavia, Ill.) on 100 V for 1 hour in Tris/glycine transfer buffer. […] Western blot quantification was done using Total Lab Program (Non-linear dynamics Inc., NC).

protein kinase C = conditions: cited from earlier work
GSK3β = experiment: Phospho-GSK3β (Ser 9) Western blot in keratinocytes; format: cell-based, human; conditions: DEX 1 μM with GO6979 400 μM, RU486 10 μM or U73122 10 μM
Procedure: Extracts for immunoblotting were prepared from a subconfluent 100 mm plate of normal HEK treated with DEX (1 μM), Calphostine C and RU486 (10 μM) or an equal volume of ethanol vehicle 4 hours prior to lysis. Cells were placed on ice; washed twice with phosphate-buffer saline (PBS); and lysed in 0.5 ml of modified RIPA buffer containing 50 mM Hepes, pH 7.5, 150 mM NaCl, 1 mM EDTA, 1 mM EGTA, 1 mM NaF, 1% Triton X-100, 10% glycerol, and additional protease and phosphatase inhibitors (1 mM phenylmethylsulfonyl fluoride, 20 mM glycerophosphate, 8 mM sodium pyrophosphate, 1 μg/ml leupeptin, 1 μg/ml pepstatin A, and 1 μg/ml aprotinin (Roche, Indianapolis, Ind.)) through fine needle aspiration. Lysates were centrifuged at 13,000 rpm for 10 min at 4° C. The soluble supernatants were normalized for total protein concentration using the Bradford protein assay, and the samples were stored at −20° C. Cell extracts were boiled for 5 minutes in Leammli sample buffer, were separated by 10% SDS-PAGE and transferred to nitrocellulose membrane (VWR, Batavia, Ill.) on 100 V for 1 hour in Tris/glycine transfer buffer. The membranes were blocked for 30 minutes in 5% bovine serum albumin in blocking solution (Tris-buffered saline (TBS, pH 7.4) at room temperature and then incubated in blocking solution with primary antibody at 4° C. overnight using 1:500 of serum for anti-c-myc antibody (Santa Cruz). The membranes were washed three times for 5 minutes with TBS and 0.1% Triton X-100 and twice with TBS and incubated for 1 hour at room temperature with horseradish peroxidase-conjugated secondary antibody (Santa Cruz, Calif.). Blots were then washed three times for 5 minutes with TBS and 0.1% Triton X-100 and developed using Super Signal West Pico Chemiluminescent substrate (Pierce, Rockford, Ill.) and exposed on x-ray film (Eastman Kodak Co. Bio Max MR-Film) according to the manufacturer's instructions. For loading control we used anti b-tubulin antibody (Santa Cruz, Santa Cruz, Calif.). Western blot quantification was done using Total Lab Program (Non-linear dynamics Inc., NC). […]

protein kinase C (PKC) = conditions: rat brain; cited from earlier work
[3] = test system: Ca^2+-independent PKC d-, e-, and z-isozymes; conditions: even at micromolar levels; cited from earlier work
wounded human skin [4] = experiment: Human skin ex vivo wound model with LiCl; format: cell-based; conditions: 4 mm punch wound, air-liquid interface, 20 mmol/L LiCl, 4 days
Excerpt: Wounds were created using 4-mm punch biopsies through the reticular dermis and a rim of cells participating in wound healing was collected by re-punching around the initial wounded area. Each time point was collected in parallel with an unwounded skin specimen of the same donor. All specimens were collected and either stored in RNAlater (Ambion, Austin, Tex.) or frozen in OCT compound (Tissue Tek, Reading, Calif.) for immunocytochemistry. To activate β-catenin, wounded skin was maintained on the air-liquid interface in the presence or absence of 20 mmol/L LiCl (Shimm, et al., J. Biol. Chem., 278:19674-19681 (2003)). Wounds were quantified by planimetry as described previously (Stojadinovic, et al., Am. J. Pathol., 167(1):59-69 (2005)).

[5] = test system: Primary human keratinocytes; experiment: Keratinocyte migration, wound scratch assay; format: cell-based
Procedure: Primary human keratinocytes were grown to 80% confluency. Twenty-four hours before the experiment cells were transferred to basal KBM medium (Life Technologies, Inc., Grand Island, N.Y.). Before the scratch, cells were treated with 8 μg/ml mitomycin C (ICN, Irvine, Calif.) for 1 hour and washed with basal media. Scratches were performed as previously described (Lee, et al., J Mol. Biol., 345:1083-1097 (2005)). Cells were incubated with 20 μmol/L LiCl or 25 ng/ml of EGF for 24 and 48 hours, rephotographed, and cell migration was quantified as previously described (Lee, et al., J. Mol. Biol., 345:1083-1097 (2005); Zavadil. et al., EMBO J., 23:1155-1165 (2004)). Thirty measurements were taken for each experimental condition and distance coverage by cells moving into the scratch wound area was quantified. Three images were analyzed per condition, per time point, and averages and standard deviations were calculated.

PLC = conditions: human platelets and neutrophils; read-out: IC50, agonist-induced PLC activation; cited from earlier work

SMILES | GC-mediated nuclearization (activation) of β-catenin (β-catenin) | dexamethasone-mediated induction of LEF/TCF-mediated transcription [2] | GCs-mediated c-myc activation (c-myc) | dexamethasone-mediated phosphorylation of GSK3β (GSK3β) | also measured
COc1c(CC(C)OC(=O)Oc2ccc(O)cc2)c2c3c(CC(C)OC(=O)c4ccccc4)c(OC)c(=O)c4c(O)cc(OC)c(c5c(OC)cc(O)c(c1=O)c52)c43 (stereo not drawn) [Calphostin C] | blocked | blocked | blocked |  | dexamethasone-mediated inhibition of epithelialization (wounded human skin [1]): rescues; IC50 (protein kinase C): 50 nM
Cn1c2ccccc2c2c3c(c4c5ccccc5n(CCC#N)c4c21)CNC3=O [Go 6976, 12-(2-Cyanoethyl)-6,7,12,13-tetrahydro-13-methyl-5-oxo-5H-indolo(2,3-a)pyrrolo(3,4-c)-carbazole] |  |  |  | block | IC50 (protein kinase C (PKC)): 7.9 nM; effect on kinase activity of Ca^2+-independent PKC d-, e-, and z-isozymes [3]: does not affect
[Cl-].[Li+] [LiCl] |  |  |  |  | wound healing (planimetry, histology) (wounded human skin [4]): completely inhibited; keratinocyte migration ([5]; 20 μmol/L LiCl or 25 ng/ml of EGF, 24 and 48 hours): inhibited; EGF-stimulated keratinocyte migration ([5]; LiCl with EGF): efficiently blocked; LEF/TCF-mediated transcription (TopFlash activity) ([2]; agent alone, Dexamethasone 1 μM): increase activity
CC#C[C@]1(O)CC[C@H]2[C@@H]3CCC4=CC(=O)CCC4=C3[C@@H](c3ccc(N(C)C)cc3)C[C@@]21C [RU486, (11b,17b)-11-(4-(Dimethylamino)phenyl)-17-hydroxy-17-(1-propynyl)estra-4,9-dien-3-one] | blocked | abolished | blocked | completely abolished; also recorded: block | 
COc1ccc2c(c1)CCC1C2CC[C@@]2(C)C1CC[C@@H]2NCCCCCCN1C(=O)C=CC1=O (stereo partly drawn) [U-73122] |  |  |  | inhibits | IC50 (PLC): 1000 to 2100 nM
